Tests used:
human CYP11B1 = target: T1, human CYP11B1 (Homo sapiens, UniProt P15538); experiment: G-402 cellular enzyme assay, human CYP11B1 (cortisol release, HTRF); type: cell-based; details: G-402 cells, 1 μM Deoxycortisol
T1 construct: expressed in transfected cells
T1 sequence (P15538 25-503): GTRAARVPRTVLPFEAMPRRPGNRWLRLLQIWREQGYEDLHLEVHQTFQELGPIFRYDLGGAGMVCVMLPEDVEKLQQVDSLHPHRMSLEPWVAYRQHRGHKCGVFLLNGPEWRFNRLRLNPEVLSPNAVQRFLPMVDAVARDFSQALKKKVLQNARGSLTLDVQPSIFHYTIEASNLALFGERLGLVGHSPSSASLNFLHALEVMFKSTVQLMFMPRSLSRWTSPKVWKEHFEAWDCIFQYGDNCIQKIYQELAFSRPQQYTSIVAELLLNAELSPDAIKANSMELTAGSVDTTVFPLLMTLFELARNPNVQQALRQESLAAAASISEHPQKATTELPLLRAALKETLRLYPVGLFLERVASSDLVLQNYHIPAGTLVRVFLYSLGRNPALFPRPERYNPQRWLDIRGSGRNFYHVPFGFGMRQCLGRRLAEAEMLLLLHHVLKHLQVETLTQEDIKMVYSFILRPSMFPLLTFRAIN
Procedure, shortened: (§1)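 G-402 cells stably expressing human CYP11B1 or CYP11B2, in DMEM/F12 with 2.5% charcoal-treated FCS, were incubated 16 h with test compound and substrate (1 μM 11-deoxycortisol for CYP11B1; 1 μM deoxycorticosterone for CYP11B2). Cortisol or aldosterone in supernatant was quantified by HTRF; EC50 from 4-parameter MMF fit.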

human CYP11B2 = target: T2, human CYP11B2 (Homo sapiens, UniProt P19099); experiment: G-402 cellular enzyme assay, human CYP11B2 (aldosterone release, HTRF); type: cell-based; details: G-402 cells, 1 μM Deoxycorticosterone
T2 construct: expressed in transfected cells
T2 sequence (P19099 25-503): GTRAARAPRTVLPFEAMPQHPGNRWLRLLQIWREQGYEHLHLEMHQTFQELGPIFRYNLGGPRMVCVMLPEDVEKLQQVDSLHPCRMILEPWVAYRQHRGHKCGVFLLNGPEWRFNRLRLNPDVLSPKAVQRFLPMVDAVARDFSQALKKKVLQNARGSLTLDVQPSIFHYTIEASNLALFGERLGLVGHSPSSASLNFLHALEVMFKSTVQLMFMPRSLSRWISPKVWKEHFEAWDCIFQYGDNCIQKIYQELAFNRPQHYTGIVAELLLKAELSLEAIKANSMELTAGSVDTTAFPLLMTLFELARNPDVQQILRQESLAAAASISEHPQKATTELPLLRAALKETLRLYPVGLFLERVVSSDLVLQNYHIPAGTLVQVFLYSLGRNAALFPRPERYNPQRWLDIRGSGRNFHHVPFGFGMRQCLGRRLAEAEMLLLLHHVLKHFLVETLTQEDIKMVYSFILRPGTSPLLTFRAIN
Procedure, shortened: as §1

| Structure (SMILES) | EC50 (human CYP11B1) | EC50 (human CYP11B2) |
| --- | --- | --- |
| O=C1c2ccc(Cl)cc2CCN1c1cncc(Cc2cc(Cl)ccc2Cl)c1 [Example 217, 6-Chloro-2-[5-(2,5-dichloro-benzyl)-pyridin-3-yl]-3,4-dihydro-2H-isoquinolin-1-one] | 803 nM | 92 nM |
| CCS(=O)(=O)Nc1cncc(N2CCc3cc(Cl)ccc3C2=O)c1 [Example 218, Ethanesulfonic acid [5-(6-chloro-1-oxo-3,4-dihydro-1H-isoquinolin-2-yl)-pyridin-3-yl]-amide] | 14300 nM | 1550 nM |
| O=C1c2ccc(Cl)cc2CCN1c1cncc(NS(=O)(=O)c2ccccc2)c1 [Example 219, N-[5-(6-Chloro-1-oxo-3,4-dihydro-1H-isoquinolin-2-yl)-pyridin-3-yl]-benzenesulfonamide] | 17600 nM | 2220 nM |
| O=C1c2ccc(Cl)cc2CCN1c1cncc(NS(=O)(=O)C2CC2)c1 [Example 221, Cyclopropanesulfonic acid [5-(6-chloro-1-oxo-3,4-dihydro-1H-isoquinolin-2-yl)-pyridin-3-yl]-amide] | 10100 nM | 2160 nM |
| O=C1c2ccc(Cl)cc2CCN1c1cncc(NCc2ccc(F)cc2)c1 [Example 222, 6-Chloro-2-[5-(4-fluoro-benzylamino)-pyridin-3-yl]-3,4-dihydro-2H-isoquinolin-1-one] | 343 nM | 80.3 nM |
| O=C1c2ccc(Cl)cc2CCN1c1cncc(NCC(F)(F)F)c1 [Example 223, 6-Chloro-2-[5-(2,2,2-trifluoro-ethylamino)-pyridin-3-yl]-3,4-dihydro-2H-isoquinolin-1-one] | 1420 nM | 116 nM |
| O=C1c2ccc(Cl)cc2CCN1c1cncc(N2CCOCC2)c1 [Example 224, 6-Chloro-2-(5-morpholin-4-yl-pyridin-3-yl)-3,4-dihydro-2H-isoquinolin-1-one] | 293 nM | 37.2 nM |
| Cn1nccc1CNc1cncc(N2CCc3cc(Cl)ccc3C2=O)c1 [Example 226, 6-Chloro-2-{5-[(2-methyl-2H-pyrazol-3-ylmethyl)-amino]-pyridin-3-yl}-3,4-dihydro-2H-isoquinolin-1-one] | 3400 nM | 53.4 nM |
| Cn1cnc(CNc2cncc(N3CCc4cc(Cl)ccc4C3=O)c2)c1 [Example 228, 6-Chloro-2-{5-[(1-methyl-1H-imidazol-4-ylmethyl)-amino]-pyridin-3-yl}-3,4-dihydro-2H-isoquinolin-1-one] | 12400 nM | 263 nM |
| O=C1c2ccc(Cl)cc2CCN1c1cncc(-c2cn[nH]c2)c1 [Example 229, 6-Chloro-2-[5-(1H-pyrazol-4-yl)-pyridin-3-yl]-3,4-dihydro-2H-isoquinolin-1-one] | 745 nM | 204 nM |
| Cc1noc(C)c1-c1cncc(N2CCc3cc(Cl)ccc3C2=O)c1 [Example 230, 6-Chloro-2-[5-(3,5-dimethyl-isoxazol-4-yl)-pyridin-3-yl]-3,4-dihydro-2H-isoquinolin-1-one] | 149 nM | 7 nM |
| O=C1c2ccc(Cl)cc2CCN1c1cncc(-c2cccc(F)c2)c1 [Example 231, 6-Chloro-2-[5-(3-fluoro-phenyl)-pyridin-3-yl]-3,4-dihydro-2H-isoquinolin-1-one] | 469 nM | 23.3 nM |
| O=C1c2ccc(Cl)cc2CCN1c1cncc(-c2ccc(F)c(F)c2)c1 [Example 232, 6-Chloro-2-[5-(3,4-difluoro-phenyl)-pyridin-3-yl]-3,4-dihydro-2H-isoquinolin-1-one] | 1350 nM | 26.6 nM |
| O=C1c2ccc(Cl)cc2CCN1c1cncc(-c2cc(F)cc(F)c2)c1 [Example 233, 6-Chloro-2-[5-(3,5-difluoro-phenyl)-pyridin-3-yl]-3,4-dihydro-2H-isoquinolin-1-one] | 21600 nM | 271 nM |

Other lines, results leading:

| EC50 (human CYP11B1) | EC50 (human CYP11B2) | Structure (SMILES) |
| --- | --- | --- |
| 1580 nM | 44.5 nM | O=C1c2ccc(Cl)cc2CCN1c1cncc(-c2cccc(Cl)c2)c1 [Example 234, 6-Chloro-2-[5-(3-chloro-phenyl)-pyridin-3-yl]-3,4-dihydro-2H-isoquinolin-1-one] |
| 221 nM | 22.7 nM | O=C1c2ccc(Cl)cc2CCN1c1cncc(-c2cc(F)ccc2F)c1 [Example 235, 6-Chloro-2-[5-(2,5-difluoro-phenyl)-pyridin-3-yl]-3,4-dihydro-2H-isoquinolin-1-one] |
| 4390 nM | 133 nM | O=C1c2ccc(Cl)cc2CCN1c1cncc(-c2cccc(C(F)(F)F)c2)c1 [Example 236, 6-Chloro-2-[5-(3-trifluoromethyl-phenyl)-pyridin-3-yl]-3,4-dihydro-2H-isoquinolin-1-one] |
| 3610 nM | 204 nM | O=C1c2ccc(Cl)cc2CCN1c1cncc(-c2cccc(OC(F)(F)F)c2)c1 [Example 237, 6-Chloro-2-[5-(3-trifluoromethoxy-phenyl)-pyridin-3-yl]-3,4-dihydro-2H-isoquinolin-1-one] |
| 5990 nM | 104 nM | Cn1nccc1-c1cncc(N2CCc3cc(Cl)ccc3C2=O)c1 [Example 238, 6-Chloro-2-[5-(2-methyl-2H-pyrazol-3-yl)-pyridin-3-yl]-3,4-dihydro-2H-isoquinolin-1-one] |
| 90 nM | 10.5 nM | Cn1cc(-c2cncc(N3CCc4cc(Cl)ccc4C3=O)c2)cn1 [Example 239, 6-Chloro-2-[5-(1-methyl-1H-pyrazol-4-yl)-pyridin-3-yl]-3,4-dihydro-2H-isoquinolin-1-one] |
| 3270 nM | 115 nM | O=C1c2ccc(Cl)cc2CCN1c1cncc(-c2ccc(Cl)c(F)c2)c1 [Example 240, 6-Chloro-2-[5-(4-chloro-3-fluoro-phenyl)-pyridin-3-yl]-3,4-dihydro-2H-isoquinolin-1-one] |
| 206 nM | 25.6 nM | O=C1c2ccc(Cl)cc2CCN1c1cncc(-c2ccccc2C(F)(F)F)c1 [Example 242, 6-Chloro-2-[5-(2-trifluoromethyl-phenyl)-pyridin-3-yl]-3,4-dihydro-2H-isoquinolin-1-one] |
| 3340 nM | 268 nM | O=C1c2ccc(Cl)cc2CCN1c1cncc(-c2cnoc2)c1 [Example 243, 6-Chloro-2-(5-isoxazol-4-yl-pyridin-3-yl)-3,4-dihydro-2H-isoquinolin-1-one] |
| 4690 nM | 1860 nM | Cn1ccnc1-c1cncc(N2CCc3cc(Cl)ccc3C2=O)c1 [Example 244, 6-Chloro-2-[5-(1-methyl-1H-imidazol-2-yl)-pyridin-3-yl]-3,4-dihydro-2H-isoquinolin-1-one] |
| 25.7 nM | 1.1 nM | Cc1cnn(C)c1-c1cncc(N2CCc3cc(Cl)ccc3C2=O)c1 [Example 245, 6-Chloro-2-[5-(2,4-dimethyl-2H-pyrazol-3-yl)-pyridin-3-yl]-3,4-dihydro-2H-isoquinolin 1-one] |
| 546 nM | 102 nM | Cn1ncc(C#N)c1-c1cncc(N2CCc3cc(Cl)ccc3C2=O)c1 [Example 246, 5-[5-(6-Chloro-1-oxo-3,4-dihydro-1H-isoquinolin-2-yl)-pyridin-3-yl]-1-methyl-1H-pyrazole-4-carbonitrile] |
| 7470 nM | 4580 nM | CC(C)C(=O)Nc1cncc(N2CCc3cc(Cl)ccc3C2=O)c1 [Example 247, N-[5-(6-Chloro-1-oxo-3,4-dihydro-1H-isoquinolin-2-yl)-pyridin-3-yl]-isobutyramide] |
| 7600 nM | 3220 nM | O=C(Nc1cncc(N2CCc3cc(Cl)ccc3C2=O)c1)c1ccc(F)cc1 [Example 249, N-[5-(6-Chloro-1-oxo-3,4-dihydro-1H-isoquinolin-2-yl)-pyridin-3-yl]-4-fluoro-benzamide] |
| 12300 nM | 4440 nM | O=C(Nc1cncc(N2CCc3cc(Cl)ccc3C2=O)c1)NC1CCCCC1 [Example 250, 1-[5-(6-Chloro-1-oxo-3,4-dihydro-1H-isoquinolin-2-yl)-pyridin-3-yl]-3-cyclohexyl-urea] |
| 15800 nM | 5880 nM | O=C(Nc1cncc(N2CCc3cc(Cl)ccc3C2=O)c1)Nc1cccc(C(F)(F)F)c1 [Example 251, 1-[5-(6-Chloro-1-oxo-3,4-dihydro-1H-isoquinolin-2-yl)-pyridin-3-yl]-3-(3-trifluoromethyl-phenyl)-urea] |
| 9760 nM | 272 nM | O=C1c2ccc(Cl)cc2CCN1c1cncc(O)c1 [Example 252, 6-Chloro-2-(5-hydroxy-pyridin-3-yl)-3,4-dihydro-2H-isoquinolin-1-one] |

Source: patent US9133158B2, “Bicyclic dihydroisoquinoline-1-one derivatives” (Hoffmann-La Roche Inc., priority 2011, dated 2015)
